Article PMC7162861, “Synthesis, cytotoxicity, pharmacokinetic profile, binding with DNA and BSA of new imidazo[1,2-a]pyrazine-benzo[d]imidazol-5-yl hybrids” (Scientific Reports, 2020)
Like-named read-outs stand apart in the source and are kept apart here.

Columns and labels:
EtBr-CT-DNA complex = assay: Competitive binding with ethidium bromide for CT-DNA; design: species or system calf
Procedure: Ethidium bromide (EtBr) displacement experiments were performed by incremental addition of compound 31 to complex of EtBr-DNA. The EtBr (3 µM) and CT-DNA (30 µM) were titrated with incremental addition of compound 31 (0–85 µM) in phosphate buffer (pH 7.4). […] The quenching constant (Kq) was calculated using the Stern-Volmer equation (Eq. 2). The apparent binding constant (Kapp) was obtained from known binding constant for ethidium bromide (KEtBr = 1 × 10^7 M^−1) using the following equation (Eq. 4).4 Kapp=KEtBr[EtBr]/[compound]50% where [compound]50% and [EtBr] are the concentrations of the compound at 50% quenching of DNA-bound ethidium bromide emission intensity and ethidium bromide (3 µM), respectively.

CT-DNA = assay: Thermal denaturation of CT-DNA; format: binding, calf; settings: CT-DNA 8.5 µM : compound 10 µM, pH 7.4
Procedure: DNA melting studies were completed by measuring the absorption spectra at 260 nm of CT-DNA (8.5 µM) and CT-DNA-derivative 31 complex (8.5 µM:10 µM) in phosphate buffer (pH 7.4) at varying temperature from 20 to 100 °C using spectrophotometer connected with Peltier.

[1] = target: T1, bovine serum albumin (BSA) (Bos taurus, UniProt P02769); assay: Förster resonance energy transfer (FRET) with BSA; format: binding; settings: BSA donor, compound acceptor
T1 sequence (P02769 25-607): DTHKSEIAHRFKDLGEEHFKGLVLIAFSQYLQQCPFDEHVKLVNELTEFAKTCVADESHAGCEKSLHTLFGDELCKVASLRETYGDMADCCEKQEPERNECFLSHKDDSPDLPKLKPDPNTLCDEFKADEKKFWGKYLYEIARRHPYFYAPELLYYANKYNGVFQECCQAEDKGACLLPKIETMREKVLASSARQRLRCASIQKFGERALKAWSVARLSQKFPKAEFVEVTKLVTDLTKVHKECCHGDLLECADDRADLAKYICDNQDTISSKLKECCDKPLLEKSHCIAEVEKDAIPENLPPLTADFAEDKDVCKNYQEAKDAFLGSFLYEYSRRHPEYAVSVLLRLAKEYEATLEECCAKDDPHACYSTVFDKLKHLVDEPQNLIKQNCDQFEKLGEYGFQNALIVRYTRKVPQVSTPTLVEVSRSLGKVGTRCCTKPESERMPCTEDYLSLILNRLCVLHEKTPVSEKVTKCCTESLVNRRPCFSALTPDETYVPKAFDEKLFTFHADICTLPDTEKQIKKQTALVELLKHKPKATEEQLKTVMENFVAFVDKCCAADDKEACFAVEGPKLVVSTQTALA
From the text: The energy transfer efficiency from BSA and compound 31 can be calculated using Eq. 5 [27]:5 E=1−F/Fo=Ro6/Ro6+r^6
F and Fo are the BSA fluorescence intensities in the presence and absence of the derivative 31, r is the distance among the acceptor and the donor, whereas Ro is the critical distance when the efficiency of energy transfer is 50%. Ro can be calculated using Eq. 6 [28]:6 Ro6=8.8×10^−25k^2η^−4ΦJ where k^2 is the orientation factor of the dipole, ɳ is the refracted index of the medium, Ф the fluorescence quantum yield of the donor, and J is the overlap integral of the fluorescence emission spectrum of the donor with the absorption spectrum of the acceptor. The value of J can be calculated using Eq. 7 [29]:7 J=ΣF(λ)ε(λ)λ^4Δλ/ΣF(λ)Δλ where F(λ) is fluorescence intensity of the donor i.e. BSA without acceptor and ε(λ) is molar absorption coefficient of the acceptor i.e. compound 31 at the wavelength λ, respectively. The values of k^2 = 2/3, ɳ = 1.336 and Ф = 0.15 were used for the calculations.

[2] = target: T1, bovine serum albumin (BSA); assay: BSA binding, fluorescence quenching (Stern-Volmer, Scatchard)
Procedure: The stock solution of compound 31 (10^−3 M) was prepared in DMSO and diluted to required concentration using appropriate buffer solution. Calf thymus (CT)-DNA was dissolved in 10 mM Tris buffer of pH 7.4 having 1 mM EDTA at room temperature. The purity of DNA solution was determined by using the ratio of absorbance at 260 nm and 280 nm wavelength. Extinction coefficient 6600 M^−1 cm^−1 of single nucleotide at 260 nm was used to determine the concentration of the DNA solution. The stock solution of BSA (10^−3 M) was prepared in distilled water and stored at 4 °C temperature.
[…] The dissociation constant of compound 31 was estimated by titrating the complex of compound 31 (10 µM) and BSA (10 µM) with increasing concentration of ibuprofen (0–15 µM), upon excitation at 280 nm. All emission spectra were recorded in the range of 200 to 800 nm.
Binding parameters KSV and Kq were calculated using the Stern-Volmer equation (Eq. 2):2 F0/F=1+Ksv[Analyte]=1+Kqτo[Analyte]
Fo denotes the emission intensity of derivative 31/BSA free from analyte (CT-DNA/ derivative 31), whereas, F denotes the emission intensity of derivative 31/BSA bound with analyte (CT-DNA/derivative 31). The values of KSV and Kq were determined from the plot of Fo/F vs. [analyte].
The binding parameters Kbin and n were determined using Scatchard equation (Eq. 3):3 logF0−F/F=logKbin+nlog[analyte]
Fo and F denote similar factors as those of the above Stern-Volmer equation. The values of Kbin and n were determined from the plot of log (Fo − F)/F vs. log [analyte].

[3] = tested on: NCI-60 cancer cell panels; assay: NCI cytotoxicity screen, full panel summary; format: cell-based
Procedure: Cytotoxicity was performed at National Cancer Institute (NCI), Bethesda, USA as per their protocols.

SMILES: c1cn2cc(-c3ccc4ncn(C5CCCCC5)c4c3)nc(-c3ccc4c(c3)ncn4C3CCCCC3)c2n1 [Compound 31, 8-(1-cyclohexyl-1H-benzo[d]imidazol-5-yl)-6-(1-cyclohexyl-1H-benzo[d]imidazol-6-yl)imidazo[1,2-a]pyrazine]
- apparent binding constant Kapp (EtBr-CT-DNA complex; EtBr displacement, Eq. 4): 750000 M⁻¹
- quenching constant (Stern-Volmer) (EtBr-CT-DNA complex; EtBr-CT-DNA 3 µM:30 µM, compound 0-80 µM): 11600 M⁻¹
- ∆Tm (CT-DNA): 12 °C
- critical distance (Ro) [1]: 2.29 nm
- distance between BSA and the compound (r) [1]: 2.08 nm
- energy transfer efficiency (E) [1]: 64%
- overlap integral value (J) [1]: 5.35 × 10^−15 cm^3 L mol^−1
- Stern-Volmer quenching constant (Ksv) ([2]; BSA): 104000 M⁻¹
- apparent bimolecular quenching constant (Kq) ([2]; BSA): 1.04e+13 M⁻¹ s⁻¹
- quenching of BSA emission band at 350 nm ([2]; BSA 10 µM, compound 0–16 µM): up to 70%
- Kbin ([2]; BSA, Scatchard): 47000 M⁻¹
- n (number of binding sites) ([2]; BSA, Scatchard): 0.92
- Kd ([2]; BSA, Scatchard, read-out: binding constant (Kbin) (converted)): 21.3 µM
- KSV ([2]; BSA, Stern-Volmer constant): 104000 M⁻¹
- Kq ([2]; BSA, apparent bimolecular quenching constant): 1.04e+13 M⁻¹ s⁻¹
- GI50 ([3]; Homo sapiens, read-out: Full panel mean-graph midpoint (MG-MID) GI50): 2.12 µM
- GI50 ([3]; Homo sapiens, read-out: GI50 range over nine panels of cell lines): 0.8 to 2.87 µM
- CC50 ([3]; Homo sapiens, average over all cancer cell lines, five dose, read-out: Full panel mean-graph midpoint (MG-MID) LC50): 6.63 µM
- Full panel mean-graph midpoint (MG-MID) TGI ([3]; average over all cancer cell lines, five dose): 4.73 µM
- number of cell lines with cytostatic effect ([3]; single dose 10 µM): 8
- number of cell lines with cytotoxic effect ([3]; single dose 10 µM): 51
